One data set deals with E. coli R477-100. Briefly: Antibacterial activity, MIC by double-microdilution method. Particulars: for MIC: Escherichia coli, R477100, read-out: Antibacterial activity MIC E. coli R477/100. The data set is classed as cell-based. As for the experimental part: (§1) Comparative antibacterial activities were determined in two representative strains of Gram-negative (E. coli R477-100) and Gram-positive (B. subtilis ATCC-6633) bacteria, by measuring the MIC values using the double-microdilution method according to the National Committee for Clinical Laboratory Standards (NCCLS) (NCCLS. National Committee for Clinical Laboratory Standards, Performance standards for antimicrobial susceptibility testing. Fifth information supplement: Approved Standard M100-S5; Villanova, Pa.: NCCLS, 1994.).
(§2) In all biological tests, all AGs were in their sulfate salt forms, and the concentrations refer to the free amine form of each AG. The eukaryotic and prokaryotic half-maximal-inhibition values (IC50^Euk and IC50^Pro) were quantified in coupled transcription/translation assays by using active luciferase detection as previously described. Minimal inhibitory concentration (MIC) values were determined by using the double-microdilution method.
(Dilution methods test growth across graded concentrations, often in twofold steps.)

Data set [1] deals with eukaryotic cytoplasmic ribosome. In words: Eukaryotic in vitro translation inhibition, TNT T7 Quick Coupled Transcription/Translation System with luciferase plasmid. Particulars: for IC50: read-out: Translation Inhibition IC50^Euk; for more specific to the eukaryotic ribosome than structurally related compound: NB156 vs NB74, NB157 vs NB124. The data set is classed as biochemical. Here is the method:
(§3) Prokaryotic in vitro translation inhibition by the different aminoglycosides was quantified in coupled transcription/translation assays by using E. coli S30 extract for circular DNA with the pBESTluc plasmid (Promega), according to the manufacturer's protocol. Translation reactions (25 μL) that contained variable concentrations of the tested aminoglycoside were incubated at 37° C. for 60 minutes, cooled on ice for 5 minutes, and diluted with a dilution reagent (tris-phosphate buffer (25 mM, pH 7.8), DTT (2 mM), 1,2-diaminocyclohexanetetraacetate (2 mM), glycerol (10%), Triton X-100 (1%) and BSA (1 mg mL-1)) into 96-well plates. Eukaryotic in vitro translation inhibition was quantified by use of TNT® T7 Quick Coupled Transcription/Translation System with a luciferase T7 control DNA plasmid (Promega), according to the manufacturer protocol. Translation reactions (25 μL) containing variable concentrations of the tested aminoglycoside were incubated at 30° C. for 60 minutes, cooled on ice for 5 minutes, diluted with the dilution reagent and transferred into 96-well plates. In both prokaryotic and eukaryotic systems the luminescence was measured immediately after the addition of the Luciferase Assay Reagent (50 μL; Promega), and the light emission was recorded with a FLx800 Fluorescence Microplate Reader (Biotek). The half-maximal inhibition concentration (IC50) values were obtained from fitting concentration-response curves to the data of at least two independent experiments by using Grafit 5 software.
as §2

Data set [2] relates to prokaryotic ribosome (E. coli S30 extract). In words: Prokaryotic in vitro translation inhibition, E. coli S30 extract with pBESTluc plasmid. The data set is classed as biochemical. Particulars: read-out: Translation Inhibition IC50^Pro. As for the experimental part: as §3, §2
Another data set deals with human fibroblast cells. Particulars: cited from earlier work.
Data set [3] has as its system R3X nonsense mutation construct representing USH1 (PCDH15). Briefly: Dual luciferase in vitro readthrough assay, R3X construct. It counts as biochemical. Particulars: FIG. 3. The source says: (§4) DNA fragments derived from PCDH15, CFTR, and IDUA cDNAs, including the tested nonsense mutation or the corresponding wild type (wt) codon, and four to six upstream and downstream flanking codons were created by annealing the following pairs of complementary oligonucleotides:
(§5) Fragments were inserted in frame into the polylinker of the p2Luc plasmid between either BamHI and SacI (p.R3X and p.R245X) or SalI and SacI (all the rest) restriction sites. For the in vitro readthrough assays, the obtained plasmids, with addition of the tested aminoglycosides were transcribed and translated using the TNT Reticulocyte Lysate Quick Coupled Transcription/Translation System. Luciferase activity was determined after 90 minutes of incubation at 30° C., using the Dual Luciferase Reporter Assay System (Promega™).
FIG. 3 presents comparative plots showing in vitro stop codon suppression levels induced by Compound 1 (-▪-), NB153 (-▴-), and NB155 (-Δ-) in R3X nonsense mutation construct representing USH1 genetic disease.

The subject of data set [4] is premature termination codon (PTC). In words: Comparative in-vitro PTC suppression activity assays (Example 3). It counts as biochemical. Particulars: preliminary. As for the experimental part: as §5
In data set [5] the test system is stop codon mutations of Table 3. In words: Dual-luciferase readthrough assay, broad arsenal of stop codon mutations. The data set is classed as biochemical. Particulars: all tested mutations. As for the experimental part: In these assays, the readthrough of a broad arsenal of stop codon mutations in the presence of NB156 and NB157 was tested. Briefly, NB156 and NB157 were tested at escalating doses for their read-through properties towards the nonsense mutation using the wild-type (WT) sequence of each specific complementary DNA (cDNA) as a control, and plasmids bearing the stop codon mutations in a dual-luciferase assay. DNA fragments derived from different cDNAs were prepared using either the WT or nonsense mutation, in which the sequences from the mutant or wild-type codon were surrounded by four to six upstream and downstream flanking codons. The cDNA sequence was inserted into the polylinker of the p2luc plasmid for each sequence.

Data set [6] deals with nonsense constructs R3X (USH1), R245X (USH1), Q70X (HS), G542X (CF). Briefly: Dual luciferase in vitro readthrough assay, four nonsense constructs. Particulars: all mutations tested, FIGS. 4A-D; for readthrough activity relative to structurally related compound lacking 7′-hydroxyl: NB156 vs NB74, NB157 vs NB124. The data set is classed as biochemical.
Excerpt: as §4, §5
Activity was tested using a collection of dual-luciferase reporter plasmids, containing different sequence contests around premature stop codons derived from the PCDH15, CFTR, and IDUA genes that underline USH1, CF, and MPS I-H, respectively. The exemplified nonsense reporters were R3X and R245X for USH1, G542X for CF, and Q70X for MPS I-H.
The results are averages of at least three independent experiments.

The next data set has as its system B. subtilis ATCC-6633. Briefly: Antibacterial activity, MIC by double-microdilution method. It counts as cell-based. Particulars: Table 2. Here is the method: as §1, §2
[7] abbreviates: Table 2, sulfate salts, concentrations refer to free amine form.

The values below come from US20190016746A1, “AMINOGLYCOSIDE DERIVATIVES AND USES THEREOF IN TREATING GENETIC DISORDERS” (Eloxx Pharmaceuticals Ltd., priority 2016, published 2019).

Read-outs that look alike come from different tables or passages of the source. A value given as a limit tells only on which side of the number the result lay.

On to `CC(O)C1O[C@H](O[C@@H]2C(N)C[C@@H](N)C(O)C2O[C@@H]2O[C@H]([C@H](C)N)C(O)C2O)C(N)C(O)[C@@H]1O` (single isomer, unassigned) [NB124, reference compound], for which the MIC with E. coli R477-100 was found to be 1270 µM. For the same compound, the half-inhibitory concentration (IC50) in data set [1] (setting [7]) came to 1.5 ± 0.1 µM; in data set [2] (setting [7]) it was 1.1 ± 0.2 µM.

Take `CN[C@@H]1[C@@H](O)[C@@H](O[C@@H]2[C@@H](O)[C@H](O[C@H]3O[C@H]([C@@H](C)O)[C@@H](O)[C@H](O)[C@H]3N)[C@@H](N)C[C@H]2N)OC[C@]1(C)O` [Compound G418, geneticin]: in the data set with human fibroblast cells, the LD50 was 0.04 mg/mL.

With `NC[C@H]1O[C@@H](OC2C(O)[C@H](N)CC(N)[C@H]2O[C@H]2OC(CO)[C@@H](O)C(O)C2N)C(O)C1O` (stereo partly shown) [NB30, reference compound], the IC50 in [1] (Table 4) came to 31 ± 4 µM; in data set [2] (Table 4), 0.45 ± 0.03 µM.

Turning to `C[C@H](N)[C@H]1O[C@@H](OC2C(O)[C@H](N)CC(N)[C@H]2O[C@H]2OC(CO)[C@@H](O)C(O)C2N)C(O)C1O` (stereo partly shown) [NB118, reference compound], the IC50 in data set [1] (Table 4) came out at 15.5 ± 1.3 µM; in data set [2] (Table 4), 1.9 ± 0.2 µM.

For `N[C@H]1[C@@H](O[C@H]2[C@H](O)[C@@H](O)[C@H](N)C[C@@H]2N)O[C@H]([C@H](O)CO)[C@@H](O)[C@@H]1O` [NB153, (2R,3S,4R,5R,6S)-5-amino-6-(((1R,2R,3S,4R,6S)-4,6-diamino-2,3-dihydroxycyclohexyl)oxy)-2-((R)-1,2-dihydroxyethyl)tetrahydro-2H-pyran-3,4-diol], in data set [3], the “in vitro readthrough activity relative to Compound 1” value is given as “dramatically increases”. Besides, the IC50 in data set [1] (setting [7]) was 120 ± 14.5 µM; in data set [2] (setting [7]), 11 ± 1.2 µM.

Take `N[C@H]1[C@@H](O[C@H]2[C@H](O)[C@@H](O)[C@H](N)C[C@@H]2N)OC(CO)=C[C@@H]1O` [NB154, (1S,2R,3R,4S,6R)-4,6-diamino-3-(((2S,3R,4S)-3-amino-4-hydroxy-6-(hydroxymethyl)-3,4-dihydro-2H-pyran-2-yl)oxy)cyclohexane-1,2-diol]: the “readthrough activity relative to NB82” value in [4] is “more or less similar activity”. Further, the “readthrough activity relative to paromamine” value in data set [4] is recorded as approximately 3.5 fold. Moreover, the IC50 in [1] (Table 4) came out at 376 ± 38.6 µM; in data set [2] (Table 4) it was 82.3 ± 11.9 µM.

Turning to `N[C@H]1[C@@H](O[C@H]2[C@H](O)[C@@H](O)[C@H](N)C[C@@H]2N)O[C@H]([C@@H](O)CO)[C@@H](O)[C@@H]1O` [NB155, (2R,3S,4R,5R,6S)-5-amino-6-(((1R,2R,3S,4R,6S)-4,6-diamino-2,3-dihydroxycyclohexyl)oxy)-2-((S)-1,2-dihydroxyethyl)tetrahydro-2H-pyran-3,4-diol], the “in vitro readthrough activity relative to Compound 1” value in [3] was “somewhat higher activity”. The figures for the IC50 in data set [1] (setting [7]) and in data set [2] (setting [7]) were 516 ± 15 µM and 91.9 ± 8.4 µM, respectively.

For the compound `NC[C@H]1O[C@@H](O[C@@H]2[C@@H](O)[C@H](N)C[C@H](N)[C@H]2O[C@H]2O[C@H]([C@H](O)CO)[C@@H](O)[C@H](O)[C@H]2N)[C@@H](O)[C@H]1O` [NB156, (2R,3S,4R,5R,6S)-5-amino-6-(((1R,2R,3S,4R,6S)-4,6-diamino-2-(((2S,3S,4R,5R)-5-(aminomethyl)-3,4-dihydroxytetrahydrofuran-2-yl)oxy)-3-hydroxycyclohexyl)oxy)-2-((R)-1,2-dihydroxyethyl)tetrahydro-2H-pyran-3,4-diol], the “stop-codon mutation readthrough activity compared to NB74” value in data set [5] is recorded as “more active than NB74”. Also, the “more specific to the eukaryotic ribosome than structurally related compound” value in data set [1] came out at 1.85 fold. Moreover, the IC50 in data set [1] (setting [7]) is 7.5 ± 0.5 µM. Also, in data set [2] (setting [7]), the 50% inhibitory concentration (IC50) was determined as 0.7 ± 0.1 µM. For the same compound, in data set [6], the “readthrough activity relative to gentamicin” value is “significantly better” and the “readthrough activity relative to structurally related compound lacking 7′-hydroxyl” value is recorded as “substantially better”.

For `C[C@H](N)[C@H]1O[C@@H](O[C@@H]2[C@@H](O)[C@H](N)C[C@H](N)[C@H]2O[C@H]2O[C@H]([C@H](O)CO)[C@@H](O)[C@H](O)[C@H]2N)[C@@H](O)[C@H]1O` [NB157, (2R,3S,4R,5R,6S)-5-amino-6-(((1R,2R,3S,4R,6S)-4,6-diamino-2-(((2S,3S,4R,5R)-5-((S)-1-aminoethyl)-3,4-dihydroxytetrahydrofuran-2-yl)oxy)-3-hydroxycyclohexyl)oxy)-2-((R)-1,2-dihydroxyethyl)tetrahydro-2H-pyran-3,4-diol], the “more specific to the eukaryotic ribosome than structurally related compound” value in data set [1] was 1.25 fold. The IC50 in data set [1] (setting [7]) turned out to be 1.2 µM. In data set [6], the “readthrough activity relative to gentamicin” value was “significantly better” and the “readthrough activity relative to structurally related compound lacking 7′-hydroxyl” value is listed as “better”.

With `NC[C@H]1O[C@@H](O[C@@H]2C(O)[C@H](N)CC(N)[C@H]2O[C@H]2OC(CO)=CC(O)[C@@H]2N)C(O)[C@H]1O` (stereo partly shown) [NB158], the MIC in the data set on E. coli R477-100 is more than 192 µg/mL. The concentration for half-maximal inhibition (IC50) is 70.7 ± 2.4 µM in [1] (Table 4) and 36.4 ± 3.5 µM in data set [2] (Table 4).

For the compound `C[C@H](N)[C@H]1O[C@@H](O[C@@H]2C(O)[C@H](N)CC(N)[C@H]2O[C@H]2OC(CO)=CC(O)[C@@H]2N)C(O)[C@H]1O` (stereo partly shown) [NB159], the MIC with E. coli R477-100 was more than 192 µg/mL. Also, the half-inhibitory concentration (IC50) in [1] (Table 4) amounted to 47.9 ± 3.3 µM; in [2] (Table 4), 134 ± 2.8 µM.

Take `N[C@H]1[C@@H](O[C@H]2[C@H](O)[C@@H](O)[C@H](N)C[C@@H]2N)O[C@H](CO)[C@@H](O)[C@@H]1O` [Paro., paromamine, reference compound]: the concentration for half-maximal inhibition (IC50) is 760 ± 79 µM in data set [1] (Table 4) and 14 ± 1.2 µM in [2] (Table 4).

For gentamicin [reference compound], the “Antibacterial Activity MIC B. Subtilis ATCC6633” value in the data set on B. subtilis ATCC-6633 is less than 0.75 µM. For the same compound, the “Antibacterial Activity MIC E. Coli R 477/100” value with E. coli R477-100 (Table 2) is 6 µM. In addition, the half-maximal inhibitory concentration (IC50) was determined as 62 µM in [1] (setting [7]) and 0.03 µM in data set [2] (setting [7]).

Usually IC50 stands for the midpoint of a concentration-inhibition curve.
